Like-named read-outs stand apart in the source and are kept apart here.
Assays:
[1] = Decomposition point of cyanine dye by DTA/TGA; type: physicochemical; conditions: temperature at which specimen begins to lose weight on TGA; heating rate 10° C./min
Source text: An adequate amount of any one of the cyanine dyes in Table 1 as a test specimen was placed in a vessel and subjected to conventional differential thermal analysis (hereinafter abbreviated as “DTA”) and thermogravimetric analysis (hereinafter abbreviated as “TGA”) using “MODEL TG/DTA 220”, a digital thermo analyzer commercialized by Seiko Instruments Inc., Tokyo, Japan, to determine their decomposition points, i.e., temperatures at which the cyanine dyes as test specimens begin to lose their weight on TGA. In parallel, conventional related compounds represented by Chemical Formulae 73 and 76 were analyzed similarly as above. […] In DTA and TGA, the environmental temperature was set to an increasing temperature mode at a rate of 10° C./min.

[2] = Solubility of cyanine dye in DAA at 20° C.; type: physicochemical; conditions: in diacetone alcohol (DAA) at 20° C.
Description: For the cyanine dyes in Table 1, they were measured in a conventional manner for solubility in […] at 20° C. In parallel, conventional related compounds represented by Chemical Formulae 73 to 76 were also measured for solubility in DAA in a similar way.

[3] = diacetone alcohol (DAA), 20 °C, organic solvent or mixture, read-out: Solubility

## CCCCN1C(=CC=CC2=[N+](C)c3ccc4ccccc4c3C2(C)C)C(C)(C)c2c1ccc1ccccc21 [Chemical Formula 13]
[1]
  Decomposition point (° C.): 264.7 °C
[2]
  Solubility: 143 mg/mL

## CCCCN1C(=CC=CC2=[N+](C)c3ccc4ccccc4c3C2(C)C)C(C)(C)c2c1ccc1ccccc21 [Chemical Formula 14]
[1]
  Decomposition point (° C.): 279.8 °C
[2]
  Solubility: 73 mg/mL

## CN1C(=CC=CC2=[N+](C)c3ccc4ccccc4c3C2(C)C)C(C)(C)c2c1ccc1ccccc21 [Chemical Formula 16]
[1]
  Decomposition point (° C.): 314.5 °C
[2]; [3]
  Solubility: 1.1 mg/mL

## CCCCN1C(=CC=CC2=[N+](CC)c3ccc4ccccc4c3C2(C)C)C(C)(C)c2c1ccc1ccccc21 [Chemical Formula 19]
[1]
  Decomposition point (° C.): 281.6 °C
[2]
  Solubility: 23 mg/mL

## CCCCN1C(=CC=CC2=[N+](CC)c3ccc4ccccc4c3C2(C)C)C(C)(C)c2c1ccc1ccccc21 [Chemical Formula 20]
[1]
  Decomposition point (° C.): 281.8 °C
[2]
  Solubility: 140 mg/mL

## CCCN1C(=CC=CC2=[N+](CC)c3ccc4ccccc4c3C2(C)C)C(C)(C)c2c1ccc1ccccc21 [Chemical Formula 21]
[1]
  Decomposition point (° C.): 301.9 °C
[2]; [3]
  Solubility: 2.8 mg/mL

## CCCCN1C(=CC=CC2=[N+](CCCC)c3ccc4ccccc4c3C2(C)C)C(C)(C)c2c1ccc1ccccc21 [Chemical Formula 33]
[1]
  Decomposition point (° C.): 284.2 °C
[2]
  Solubility: 61 mg/mL

## CCCCN1/C(=C\C=C\C2=[N+](CCCC)c3ccc4ccccc4c3C2(C)C)C(C)(C)c2c1ccc1ccccc21 [Chemical Formula 35]
[1]
  Decomposition point (° C.): 280.1 °C
[2]
  Solubility: 6.4 mg/mL

## CN1C(=CC=CC2=[N+](C)c3ccc4ccccc4c3C2(C)C)C(C)(C)c2ccc3ccccc3c21 [Chemical Formula 43]
[1]
  Decomposition point (° C.): 304.7 °C
[2]; [3]
  Solubility: 2.7 mg/mL

## CCCC[N+]1=C(C=CC=C2N(C)c3c(ccc4ccccc34)C2(C)C)C(C)(C)c2c1ccc1ccccc21 [Chemical Formula 50]
[1]
  Decomposition point (° C.): 261.3 °C
[2]; [3]
  Solubility: 64 mg/mL

## CCCCN1C(=CC=CC2=[N+](C)c3ccc4ccccc4c3C2(C)C)C(C)(C)c2c1ccc1ccccc21 [Chemical Formula 73, reference compound]
[1]
  Decomposition point (° C.): 242.2 °C
[2]
  Solubility: 42 mg/mL

## CCCCN1C(=CC=CC2=[N+](CC)c3ccc4ccccc4c3C2(C)C)C(C)(C)c2c1ccc1ccccc21 [Chemical Formula 74, reference compound]
[1]
  Decomposition point (° C.): 211.5 °C
[2]
  Solubility: 22 mg/mL

## CCCCN1C(=CC=CC2=[N+](CCC)c3ccc4ccccc4c3C2(C)C)C(C)(C)c2c1ccc1ccccc21 [Chemical Formula 75, reference compound]
[1]
  Decomposition point (° C.): 269.0 °C
[2]; [3]
  Solubility: 19 mg/mL

## CCCCN1C(=CC=CC2=[N+](CCCC)c3ccc4ccccc4c3C2(C)C)C(C)(C)c2c1ccc1ccccc21 [Chemical Formula 76, reference compound]
[1]
  Decomposition point (° C.): 266.1 °C
[2]
  Solubility: 17 mg/mL

— patent US6743568B2, “Cyanine dyes” (Kabushiki Kaisha Hayashibara Seibutsu Kagaku Kenkyujo, priority 2000, dated 2004)
